Like-named read-outs stand apart in the source and are kept apart here.
How the values were obtained:
[1] = system: 3D7-MR4 trophozoite parasite-infected RBCs; assay: Metabolomic profiling (hydrophilic metabolite changes, UHPLC-MS); assay type: cell-based, Plasmodium falciparum
[2] = system: Plasmodium falciparum 3D7-A10 parasites; assay: Stage specificity assay (8-h exposure of synchronized stages, IC50^8h); assay type: cell-based; details: for IC50: Plasmodium falciparum
[3] = system: asynchronous 3D7-A10 parasite cultures; assay: Standard 72-h exposure asexual blood stage susceptibility assay (IC50^72h); assay type: cell-based, Plasmodium falciparum; details: Plasmodium falciparum, 3D7, 72 h, read-out: Overall (72hr assay) Mean IC50 (IC50^72h)

## COc1cc(-c2nc(-c3ccccc3)c(-c3ccccc3)[nH]2)ccc1OCCN(C)C [MMV027496]
[1]; metabolite 3-phosphoglycerate, log2 fold change
  Log2(fold changes) 3-phosphoglycerate: 0.0073
[1]; metabolite 4-Pyridoxic acid, log2 fold change
  Log2(fold changes) 4-Pyridoxic acid: -0.0867
[1]; metabolite 4-aminobutyrate, log2 fold change
  Log2(fold changes) 4-aminobutyrate: -0.1160
[1]; metabolite 4-phosphopantetheine, log2 fold change
  Log2(fold changes) 4-phosphopantetheine: -1.1166
[1]; metabolite 4-phosphopantothenate, log2 fold change
  Log2(fold changes) 4-phosphopantothenate: -0.2287
[1]; metabolite 5-aminopentanoic acid, log2 fold change
  Log2(fold changes) 5-aminopentanoic acid: 0.0000
[1]; metabolite 5-methyl-THF, log2 fold change
  Log2(fold changes) 5-methyl-THF: 0.0000
[1]; metabolite 5-phosphoribosyl-1-pyrophosphate, log2 fold change
  Log2(fold changes) 5-phosphoribosyl-1-pyrophosphate: -0.7343
[1]; metabolite 6-phospho-D-gluconate, log2 fold change
  Log2(fold changes) 6-phospho-D-gluconate: -0.1141
[1]; metabolite HVDD
  Log2(fold change) HVDD: -2.1597
[1]; metabolite Hydroxyisocaproic acid
  Log2(fold change) Hydroxyisocaproic acid: 0.0000
[1]; metabolite IDP
  Log2(fold change) IDP: 0.0000
[1]; metabolite IMP
  Log2(fold change) IMP: 0.0628
[1]; metabolite Inositol
  Log2(fold change) Inositol: 0.0000
[1]; metabolite Isopentyl-PP
  Log2(fold change) Isopentyl-PP: 0.0000
[1]; metabolite L-arginino-succinate
  Log2(fold change) L-arginino-succinate: 0.8581
[1]; metabolite LD
  Log2(fold change) LD: -0.0397
[1]; metabolite Myristoyl/tetradecanoyl-CoA
  Log2(fold change) Myristoyl/tetradecanoyl-CoA: 0.0000
[1]; metabolite N-Acetyl-L-alanine
  Log2(fold change) N-Acetyl-L-alanine: 0.1987
[1]; metabolite N-acetyl-L-ornithine
  Log2(fold change) N-acetyl-L-ornithine: 0.0000
[1]; metabolite N-acetyl-glucosamine-1/6-phosphate
  Log2(fold change) N-acetyl-glucosamine-1/6-phosphate: -0.0707
[1]; metabolite N-acetyl-glutamate
  Log2(fold change) N-acetyl-glutamate: -0.1403
[1]; metabolite N-acetyl-glutamine
  Log2(fold change) N-acetyl-glutamine: -1.0773
[1]; metabolite N-carbamoyl-L-aspartate
  Log2(fold change) N-carbamoyl-L-aspartate: 0.5722
[1]; metabolite NAD+
  Log2(fold change) NAD+: -0.1059
[1]; metabolite NADH
  Log2(fold change) NADH: 2.0630
[1]; metabolite NADP+
  Log2(fold change) NADP+: -0.2030
[1]; metabolite NADPH
  Log2(fold change) NADPH: 1.8886
[1]; metabolite O-acetyl-L-serine
  Log2(fold change) O-acetyl-L-serine: 0.0000
[1]; metabolite Octoluse 8/1P
  Log2(fold change) Octoluse 8/1P: 0.3428
[1]; metabolite Octoluse Bisphosphate
  Log2(fold change) Octoluse Bisphosphate: 0.2244
[1]; metabolite PD
  Log2(fold change) PD: -1.0804
[1]; metabolite PE
  Log2(fold change) PE: -1.1988
[1]; metabolite PEE
  Log2(fold change) PEE: -0.8148
[1]; metabolite PEEK
  Log2(fold change) PEEK: 0.0064
[1]; metabolite PVNF
  Log2(fold change) PVNF: -2.2754
[1]; metabolite Pyroglutamic acid
  Log2(fold change) Pyroglutamic acid: 0.2204
[1]; metabolite Pyrophosphate
  Log2(fold change) Pyrophosphate: 0.0000
[1]; metabolite Ribose-5-phosphate
  Log2(fold change) Ribose-5-phosphate: -0.4834
[1]; metabolite S-adenosyl-L-homocysteine
  Log2(fold change) S-adenosyl-L-homocysteine: 0.0314
[1]; metabolite S-adenosyl-L-methioninamine
  Log2(fold change) S-adenosyl-L-methioninamine: 0.0000
[1]; metabolite S-adenosyl-L-methionine
  Log2(fold change) S-adenosyl-L-methionine: 0.0000
[1]; metabolite S-methyl-5'-thioadenosine
  Log2(fold change) S-methyl-5'-thioadenosine: -0.0546
[1]; metabolite SD
  Log2(fold change) SD: -0.8375
[1]; metabolite SDL
  Log2(fold change) SDL: -2.4484
[1]; metabolite SID
  Log2(fold change) SID: 0.0000
[1]; metabolite Sedoheptulose bisphosphate
  Log2(fold change) Sedoheptulose bisphosphate: 0.5967
[1]; metabolite Thiamine pyrophosphate
  Log2(fold change) Thiamine pyrophosphate: 0.1905
[1]; metabolite UDP-D-glucose, log2 fold change
  Log2(fold changes) UDP-D-glucose: 0.0680
[1]; metabolite UDP-D-glucuronate, log2 fold change
  Log2(fold changes) UDP-D-glucuronate: -0.0322
[1]; metabolite UDP-N-acetyl-glucosamine, log2 fold change
  Log2(fold changes) UDP-N-acetyl-glucosamine: -0.0747
[1]; metabolite UDP, log2 fold change
  Log2(fold changes) UDP: -0.5781
[1]; metabolite UMP, log2 fold change
  Log2(fold changes) UMP: 0.0423
[1]; metabolite UTP, log2 fold change
  Log2(fold changes) UTP: -0.1765
[1]; metabolite hydroxyphenylpyruvate
  Log2(fold change) hydroxyphenylpyruvate: 0.0000
[1]; metabolite hydroxyproline/Aminolevulinate
  Log2(fold change) hydroxyproline/Aminolevulinate: -0.0266
[1]; metabolite hypoxanthine
  Log2(fold change) hypoxanthine: 0.1428
[1]; metabolite indole
  Log2(fold change) indole: 0.0089
[1]; metabolite inosine
  Log2(fold change) inosine: -0.2181
[1]; metabolite isoleucine
  Log2(fold change) isoleucine: 0.0175
[1]; metabolite lactate
  Log2(fold change) lactate: -0.1982
[1]; metabolite leucine
  Log2(fold change) leucine: -0.1115
[1]; metabolite lysine
  Log2(fold change) lysine: 0.0000
[1]; metabolite malate
  Log2(fold change) malate: -0.3708
[1]; metabolite maleic acid
  Log2(fold change) maleic acid: -0.2294
[1]; metabolite methionine
  Log2(fold change) methionine: 0.2631
[1]; metabolite myo-inositol
  Log2(fold change) myo-inositol: 0.0000
[1]; metabolite nicotinamide mononucleotide
  Log2(fold change) nicotinamide mononucleotide: 0.0000
[1]; metabolite nicotinate
  Log2(fold change) nicotinate: 0.0117
[1]; metabolite ornithine
  Log2(fold change) ornithine: 0.0000
[1]; metabolite orotate
  Log2(fold change) orotate: 1.3653
[1]; metabolite orotidine-5'-phosphate
  Log2(fold change) orotidine-5'-phosphate: 0.1863
[1]; metabolite oxaloacetate
  Log2(fold change) oxaloacetate: 0.0000
[1]; metabolite p-aminobenzoate
  Log2(fold change) p-aminobenzoate: 0.0000
[1]; metabolite p-hydroxybenzoate
  Log2(fold change) p-hydroxybenzoate: 0.0000
[1]; metabolite pantothenate
  Log2(fold change) pantothenate: 0.0065
[1]; metabolite phenylalanine
  Log2(fold change) phenylalanine: -0.1381
[1]; metabolite phenylpyruvate
  Log2(fold change) phenylpyruvate: 0.0000
[1]; metabolite phosphoenolpyruvate
  Log2(fold change) phosphoenolpyruvate: -0.0480
[1]; metabolite prephenate
  Log2(fold change) prephenate: 0.0000
[1]; metabolite proline
  Log2(fold change) proline: -0.1946
[1]; metabolite pyridoxine
  Log2(fold change) pyridoxine: 0.0000
[1]; metabolite pyruvate
  Log2(fold change) pyruvate: -0.1903
[1]; metabolite riboflavin
  Log2(fold change) riboflavin: -0.1484
[1]; metabolite ribose
  Log2(fold change) ribose: 0.0000
[1]; metabolite ribose-phosphate
  Log2(fold change) ribose-phosphate: 0.0000
[1]; metabolite ribulose-5-phosphate
  Log2(fold change) ribulose-5-phosphate: -0.2217
[1]; metabolite serine
  Log2(fold change) serine: 0.1164
[1]; metabolite sn-glycerol-3-phosphate
  Log2(fold change) sn-glycerol-3-phosphate: 0.2423
[1]; metabolite succinate/Methylmalonic acid
  Log2(fold change) succinate/Methylmalonic acid: 0.0338
[1]; metabolite succinyl-CoA/methylmalonyl-CoA
  Log2(fold change) succinyl-CoA/methylmalonyl-CoA: 0.0865
[1]; metabolite taurine
  Log2(fold change) taurine: 0.0000
[1]; metabolite thiamine
  Log2(fold change) thiamine: 0.0000
[1]; metabolite threonine/homoserine
  Log2(fold change) threonine/homoserine: -0.2212
[1]; metabolite thymidine
  Log2(fold change) thymidine: 0.0000
[1]; metabolite thymine, log2 fold change
  Log2(fold changes) thymine: 0.0000
[1]; metabolite trehalose-6-Phosphate, log2 fold change
  Log2(fold changes) trehalose-6-Phosphate: 0.0000
[1]; metabolite tryptophan, log2 fold change
  Log2(fold changes) tryptophan: -0.0286
[1]; metabolite tyrosine, log2 fold change
  Log2(fold changes) tyrosine: 0.0383
[1]; metabolite uridine, log2 fold change
  Log2(fold changes) uridine: 0.0000
[2]; 3D7-A10
  Ratio lowest IC50 8hr/IC50 72hr: 1.9
[2]; 3D7, read-out: Early rings Mean IC50 (IC50^8h), 8-h exposure 0–8 hr, 3D7-A10, survival at 60 h
  IC50: 2760 nM
[2]; 3D7, read-out: Early trophozoites Mean IC50 (IC50^8h), 8-h exposure 16–24 hr, 3D7-A10, survival at 60 h
  IC50: 168 nM
[2]; 3D7, read-out: Late rings Mean IC50 (IC50^8h), 8-h exposure 8–16 hr, 3D7-A10, survival at 60 h
  IC50: 878 nM
[2]; 3D7, read-out: Late trophozoites Mean IC50 (IC50^8h), 8-h exposure 24–32 hr, 3D7-A10, survival at 60 h
  IC50: 199 nM
[2]; 3D7, read-out: Schizonts Mean IC50 (IC50^8h), 8-h exposure 32–40 hr, 3D7-A10, survival at 60 h
  IC50: 4340 nM
[2]; period when the parasite was most susceptible (lowest IC50^8h)
  Stage of peak activity (Figure 6): trophozoites
[2]; stage(s) with the lowest IC50^8h
  Peak Activity (Table S1): Trophs
[3]
  IC50: 89.7 nM

From article PMC7031696 (Cell chemical biology, 2019)
